Assay results from paper PMC12606866, “Phenolic Compounds from Diarthron iranica: Enzymatic and in Silico Insights Into α-Amylase Inhibitory Activity” (Iranian Journal of Pharmaceutical Research : IJPR, 2025).
In brackets after ≈: the same amount, converted by molar mass.

Target: α-amylase
Assay: DNS colorimetric alpha-amylase inhibition assay with starch
Assay type: biochemical

| SMILES | IC50 [µg/mL] |
| --- | --- |
| COc1cc2cc(Oc3ccc4ccc(=O)oc4c3)c(=O)oc2cc1O [compound 2, 6'-Methoxy-7'-hydroxy-3'-O-7-bicoumarin] | 710 (≈ 2020 µM) |
| COc1cc([C@H]2OC[C@H]3[C@@H]2CO[C@@H]3c2ccc(O)c(OC)c2)ccc1O [compound 3, 4,4'-dihydroxy-3,3'-dimethoxy-7, 9’:7’, 9-diepoxylignan] | 1810 (≈ 5050 µM) |
| COc1cc(O[C@@H]2O[C@H](CO[C@@H]3OC[C@@H](O)[C@H](O)[C@H]3O)[C@@H](O)[C@H](O)[C@H]2O)c2c(=O)cc(-c3ccc(O)cc3)oc2c1 [compound 1, 5-[(β)-D-xylopyranoside-(1'''→6'')-β-D-glucopyranoside] 7-Methoxy apigenin] | 1320 (≈ 2280 µM) |
| O=c1cc(-c2ccc(O)c(O)c2)oc2cc(O)cc(O)c12 [luteolin, reference compound] | 630 (≈ 2200 µM) |
